Reference: US3954972A, “Antibiotic A-26771 factor” (Eli Lilly and Company, priority 1975, dated 1976)
“Also recorded” adds a separate entry of the source. Where two headings read alike, the source gives them in different places.

Key:
[1] = tested on: several viruses, including polioviruses and Coxsackie virus; assay type: cell-based
[2] = electrometric titration; assay type: physicochemical; details: 66 percent dimethylformamide
[3] = tested on: Bacillus subtilis; assay: microbe, parasite or virus in culture; assay type: cell-based
[4] = tested on: Serratia marcescens; assay: microbe, parasite or virus in culture; assay type: cell-based
[5] = tested on: Klebsiella pneumoniae; assay: microbe, parasite or virus in culture; assay type: cell-based
[6] = tested on: Fusarium moniliforme; assay: microbe, parasite or virus in culture; assay type: cell-based; details: Fusarium verticillioides
[7] = tested on: Sarcina lutea; assay: microbe, parasite or virus in culture; assay type: cell-based; details: Micrococcus luteus
[8] = tested on: Neurospora crassa; assay: microbe, parasite or virus in culture; assay type: cell-based
[9] = tested on: Mycobacterium avium; assay: disc-plate assay, Mycobacterium avium; assay type: cell-based
[10] = tested on: White Swiss mice; assay: survival of mice after intraperitoneal injection; details: groups of four mice
[11] = tested on: Type III poliovirus; assay: microbe, parasite or virus in culture; assay type: cell-based
[12] = tested on: Staphylococcus aureus; assay: microbe, parasite or virus in culture; assay type: cell-based
[13] = tested on: Trichophyton mentagrophytes; assay: microbe, parasite or virus in culture; assay type: cell-based
[14] = tested on: Escherichia coli; assay: microbe, parasite or virus in culture; assay type: cell-based
[15] = tested on: Candida albicans; assay: microbe, parasite or virus in culture; assay type: cell-based
[16] = tested on: Saccharomyces pastorianum; assay: microbe, parasite or virus in culture; assay type: cell-based
[17] = tested on: Coxsackie virus A-21 (COE strain); assay: microbe, parasite or virus in culture; assay type: cell-based; details: read-out: diameter of zone of virus inhibition
[18] = tested on: poliovirus III; assay type: in vivo, mice; details: for Z (zone diameter of viral inhibition by serum): BSC1 cells
[19] = tested on: Vibrio coli; assay: microbe, parasite or virus in culture; details: Campylobacter coli
[20] = tested on: Mycoplasma granularum; assay: microbe, parasite or virus in culture; details: Acholeplasma granularum
[21] = tested on: Mycoplasma gallisepticum; assay: microbe, parasite or virus in culture; details: Mycoplasmoides gallisepticum
[22] = tested on: Mycoplasma synoviae; assay: microbe, parasite or virus in culture; details: Mycoplasmopsis synoviae
[23] = tested on: Staphylococcus aureus; assay: microbe, parasite or virus in culture
[24] = tested on: Mycoplasma hyopneumoniae; assay: microbe, parasite or virus in culture; details: Mesomycoplasma hyopneumoniae
[25] = tested on: Botrytis cinerea; assay: in vitro susceptibility (MIC), Botrytis cinerea; assay type: cell-based
[26] = tested on: Trichophyton mentagrophytes; assay: microbe, parasite or virus in culture
[27] = tested on: Ceratocystis ulmi; assay: in vitro susceptibility (MIC), Ceratocystis ulmi; assay type: cell-based
[28] = tested on: Candida tropicalis; assay: microbe, parasite or virus in culture
[29] = tested on: Streptococcus faecalis; assay: microbe, parasite or virus in culture; details: Enterococcus faecalis
[30] = tested on: Verticillium albo-atrum; assay: in vitro susceptibility (MIC), Verticillium albo-atrum; assay type: cell-based
[31] = tested on: Mycoplasma hyosynoviae; assay: microbe, parasite or virus in culture
[32] = tested on: Xanthomonas phaseoli; assay: microbe, parasite or virus in culture
[33] = tested on: Pasteurella multocida; assay: microbe, parasite or virus in culture
[34] = tested on: Erwinia amylovora; assay: microbe, parasite or virus in culture
[35] = 29 mg./kg. intraperitoneal, One Hour
[36] = 29 mg./kg. intraperitoneal, Six Hours
[37] = 58 mg./kg. intraperitoneal, One Hour
[38] = 58 mg./kg. intraperitoneal, Six Hours
[39] = 117 mg./kg. intraperitoneal, One Hour
[40] = 234 mg./kg. intraperitoneal, One Hour
[41] = Enterovirus C, read-out: diameter of zone of virus inhibition
[42] = Enterovirus C; read-out: diameter of zone of virus inhibition

With `CN1C(=O)C2(Cc3ccccc3)SSC1(CO)C(=O)N2C` (single isomer, unassigned) [Factor A, 3-benzyl-6-(hydroxymethyl)-1,4-dimethyl-3,6-epidithio-2,5-piperazinedione] the antiviral activity ([1]; tissue culture) was “demonstrated against several viruses, including polioviruses and Coxsackie virus; also recorded: antiviral agents; also recorded: antiviral activity”, the titratable groups [2] was “did not indicate the presence of titratable groups” and the zone of inhibition at 100 µg/mL [3] was 11 mm. The zone of inhibition at 1000 µg/mL [3] was 22 mm, the zone of inhibition at 1000 µg/mL [4] was 14 mm and the zone of inhibition at 1000 µg/mL [5] was 12 mm. It also gave a zone of inhibition at 100 µg/mL [6] of 10 mm, a zone of inhibition at 1000 µg/mL [6] of 14 mm and a zone of inhibition at 100 µg/mL [7] of 18 mm. The zone of inhibition at 1000 µg/mL [7] was 28 mm, the zone of inhibition at 100 µg/mL [8] was 13 mm and the zone of inhibition at 1000 µg/mL [8] was 27 mm. It also gave a zone of inhibition at 1000 µg/mL [9] of 14 mm, a Survivors [10, 35] of 4 and a Survivors [10, 36] of 4. The Survivors [10, 37] was 4, the Survivors [10, 38] was 4 and the Survivors [10, 39] was 4. The Survivors ([10]; 117 mg./kg. intraperitoneal, Six Hours) was 0, the Survivors [10, 40] was 4 and the Survivors ([10]; 234 mg./kg. intraperitoneal, Six Hours) was 0. For the same compound, the zone of inhibition at 1.5 µg/mL [11, 41] was 16 mm, the zone of inhibition at 3.2 µg/mL [11, 41] was 24 mm and the zone of inhibition at 7.5 µg/mL [11, 41] was 30 mm. The zone of inhibition at 15 µg/mL [11, 41] was 34 mm, the zone of inhibition at 31.1 µg/mL [11, 41] was 38 mm and the zone of inhibition at 62.2 µg/mL [11, 41] was 40 mm. It also gave a zone of inhibition at 125 µg/mL [11, 41] of 44 mm, a zone of inhibition at 250 µg/mL [11, 41] of 46 mm and a zone of inhibition at 500 µg/mL [11, 41] of 50 mm. For the same compound, the zone of inhibition at 1000 µg/mL [11, 41] was 50 mm, the zone of inhibition at 100 µg/mL [12] was 12 mm and the zone of inhibition at 1000 µg/mL [12] was 23 mm. The zone of inhibition at 100 µg/mL [13] was 19 mm, the zone of inhibition at 1000 µg/mL [13] was 27 mm and the zone of inhibition at 1000 µg/mL [14] was 12 mm. It also gave a zone of inhibition at 1000 µg/mL [15] of 28 mm, a zone of inhibition at 100 µg/mL [16] of 19 mm and a zone of inhibition at 1000 µg/mL [16] of 32 mm. The zone of inhibition at 1.5 µg/mL [17] was 15 mm, the zone of inhibition at 3.2 µg/mL [17] was 20 mm and the zone of inhibition at 7.5 µg/mL [17] was 26 mm. For the same compound, the zone of inhibition at 15 µg/mL [17] was 32 mm, the zone of inhibition at 31.1 µg/mL [17] was 35 mm and the zone of inhibition at 62.2 µg/mL [17] was 38 mm. It also gave a zone of inhibition at 125 µg/mL [17] of 40 mm, a zone of inhibition at 250 µg/mL [17] of 45 mm and a zone of inhibition at 500 µg/mL [17] of 50 mm. The zone of inhibition at 1000 µg/mL [17] was 52 mm, the “Z (zone diameter of viral inhibition by serum)” value [18, 35] was 20 millimeters and the “Z (zone diameter of viral inhibition by serum)” value [18, 36] was 18 millimeters. For the same compound, the “Z (zone diameter of viral inhibition by serum)” value [18, 37] was 24 millimeters, the “Z (zone diameter of viral inhibition by serum)” value [18, 38] was 23 millimeters and the “Z (zone diameter of viral inhibition by serum)” value [18, 39] was 29 millimeters. For the same compound, the “Z (zone diameter of viral inhibition by serum)” value [18, 40] was 30 millimeters and the “antiviral activity in vivo” value ([18]; biological activity of serum levels in mice) was “demonstrated in vivo from the biological activity of serum levels in mice”.

`CC1CCCCCCCCCC(OC(=O)CCC(=O)O)C(=O)/C=C/C(=O)O1` (centres unmarked) [Factor B, mono(16-methyl-2,5-dioxooxacyclohexadec-3-en-6-yl) succinate] showed an MIC [19] of 50 µg/mL, an MIC [20] of 50 µg/mL and an MIC [21] of 3.12 µg/mL. For the same compound, the MIC [22] was 12.5 µg/mL, the zone of inhibition at 1000 µg/mL [3] was 14 mm and the MIC [23] was less than 1.56 µg/mL. It also gave an MIC [24] of 12.5 µg/mL, an MIC [25] of 12.5 µg/mL and an MIC [26] of 6.25 µg/mL. For the same compound, the MIC [27] was 6.25 µg/mL, the zone of inhibition at 100 µg/mL [7] was 12 mm and the zone of inhibition at 1000 µg/mL [7] was 22 mm. The zone of inhibition at 1000 µg/mL [8] was 13 mm, the MIC [28] was 100 µg/mL and the MIC [29] was 25 µg/mL. It also gave an MIC [30] of 50 µg/mL, an MIC [31] of 12.5 µg/mL and an MIC [32] of 50 µg/mL. The zone of inhibition at 100 µg/mL [12] was 15 mm, the zone of inhibition at 1000 µg/mL [12] was 24 mm and the MIC [33] was 6.25 µg/mL. The zone of inhibition at 1000 µg/mL [13] was 14 mm, the zone of inhibition at 100 µg/mL [16] was 12 mm and the zone of inhibition at 1000 µg/mL [16] was 25 mm. It also gave an MIC [34] of less than 0.78 µg/mL.

With `CN1C(=O)C2(Cc3ccccc3)SSSSC1(CO)C(=O)N2C` (centres unmarked) [Factor C, 3-benzyl-6-(hydroxymethyl)-1,4-dimethyl-3,6-epitetrathio-2,5-piperazinedione] the antiviral activity [1] was “demonstrated against several viruses, including polioviruses and Coxsackie virus; also recorded: antiviral agents; also recorded: antiviral activity”, the zone of inhibition at 100 µg/mL [11, 42] was 40 mm and the zone of inhibition at 1000 µg/mL [11, 42] was 50 mm. It also gave a zone of inhibition at 100 µg/mL [17] of 40 mm and a zone of inhibition at 1000 µg/mL [17] of 50 mm.
